This note sets out measurements from patent publication US20040013721A1, “Controlled and sustained release properties of polyelectrolyte multilayer capsules” (priority 2000, published 2004).

This data set is described as follows: Permeability for probe polymers and dyes, and its temperature dependence, by confocal imaging. The conditions noted are these: independent of their charge. It is filed as physicochemical. Here is the method: Monodisperse spheres (d=5.94 μm) of a weakly polymerized melamine-formaldehyde resin were used as templates (Microparticle GmbH). The particles were covered by alternating adsorption of sodium polystyrene sulfonate PSS (MW 70 000 g mol^−1, Aldrich) and polyallylamine hydrochloride PAH (MW 70 000 g mol^−1, Aldrich) from an aqueous solution of 10^−2 M PSS in 0.1 M sodium chloride. After 8 layers the core was dissolved in 0.1 M hydrochloric acid. The decomposition products were removed by washing with acid and an aqueous solution of 10^−2 M NaCl. Hollow polyelectrolyte capsules remained. […]
For the study of the permeability, fluorescence labeled polymers were used. […] The MW of the polymer was determined being 120 000 g/mol by gel permeation chromatography. […]
Laser scanning microscopy was performed for the determination of the loading grade of the capsules. […] The amounts of polymer/monomer in the interior were determined by integration of the fluorescence intensity inside the capsules. The exact concentration was taken from calibration curves, determined for each fluorescent probe separately. […]
The permeability of the capsules was studied for positively (PAH) and negatively charged (PSS), zwitterionic (albumine) and noncharged (dextran) fluorescent polymers (dextran). […] Then, the fluorescence intensity in the center of the capsules was measured by confocal imaging. […]

In the case of `CN(C)c1ccc2cc3ccc(N(C)C)cc3nc2c1` [acridine orange], the “penetration of the capsule wall by small dye molecules” value is given as “can penetrate the capsule wall”.

Turning to rhodamine, the “penetration of the capsule wall by small dye molecules” value was “can penetrate the capsule wall”.
